From patent US12490740B2, “Active compound combinations having insecticidal properties” (Bayer Aktiengesellschaft, priority 2019, dated 2025)
Where two headings read alike, the source gives them in different places.

Columns and labels:
Spodoptera frugiperda = Spodoptera frugiperda - spray test (cotton leaves); type: in vivo
Procedure: (§1) The expected efficacy of a given combination of two compounds is calculated as follows (see Colby, S. R., “Calculating Synergistic and antagonistic Responses of Herbicide Combinations”, Weeds 15, pp. 20-22, 1967): • If • X is the efficacy expressed in % mortality of the untreated control for test compound A at a concentration of m ppm respectively m g/ha, • Y is the efficacy expressed in % mortality of the untreated control for test compound B at a concentration of n ppm respectively n g/ha, • E is the efficacy expressed in % mortality of the untreated control using the mixture of A and B at m and n ppm respectively m and n g/ha, • then is
(§2) If the observed insecticidal efficacy of the combination is higher than the one calculated as “E”, then the combination of the two compounds is more than additive, i.e. there is a synergistic effect.
Spodoptera frugiperda—Spray Test
(§3) • Solvent: 7 parts by weight of dimethylformamide • Emulsifier: alkylaryl polyglycol ether
(§4) To produce a suitable preparation of active compound, 1 part by weight of active compound is mixed with the stated amount of solvent and is diluted with water, containing an emulsifier concentration of 1000 ppm, to the desired concentration. Further test concentrations are prepared by dilution with emulsifier containing water.
Cotton leaves (Gossypium hirsutum) are treated by being sprayed with the preparation of the active compound of the desired concentration and are infested with caterpillars of the fall army worm (Spodoptera frugiperda).
After the specified period of time mortality in % is determined. 100% means all the caterpillars have been killed and 0% means none of the caterpillars have been killed. The mortality values determined thus are recalculated using the Colby-formula (see above).

Phaedon cochleariae = Phaedon cochleariae - spray test (cabbage leaves); type: in vivo
Procedure: as §1, §2
Phaedon cochleariae—Spray Test
as §3, §4
Cabbage leaves (Brassica oleracea) are treated by being sprayed with the preparation of the active compound of the desired concentration and are infested with mustard beetle larvae (Phaedon cochleariae).
After the specified period of time mortality in % is determined. 100% means all the beetle larvae have been killed and 0% means none of the beetle larvae have been killed. The mortality values determined thus are recalculated using the Colby-formula (see sheet 1).

[1] = Spodoptera frugiperda, 72 h, read-out: Mortality in % after 3 days

Compound: CON(C(=O)c1cn(C)nc1C(F)F)C(C)Cc1c(Cl)cc(Cl)cc1Cl (racemic) [Pydiflumetofen, 3-(difluoromethyl)-N-methoxy-1-methyl-N—[(RS)-1-methyl-2-(2,4,6-trichlorophenyl)ethyl]-1H-pyrazole-4-carboxamide]
- mortality at 1.5 ppm (Spodoptera frugiperda; Spodoptera frugiperda, 48 h, read-out: Mortality in % after 2 days): 0%
- mortality at 1.5 ppm (Spodoptera frugiperda; [1]): 0%
- mortality at 3 ppm (Spodoptera frugiperda; [1]): 0%
- mortality at 1.5 ppm (Spodoptera frugiperda; Spodoptera frugiperda, 144 h, read-out: Mortality in % after 6 days): 0%

Compound: CS(=O)(=O)Oc1cccc(Cl)c1C1CC(c2csc(C3CCN(C(=O)Cn4nc(C(F)F)cc4C(F)F)CC3)n2)=NO1 (centres unmarked) [Fluoxapiprolin, fluoxapiprolin]
- Mortality in % after 1 day (Phaedon cochleariae; 3 ppm): 0%
- Mortality in % after 2 days (Phaedon cochleariae; 3 ppm): 0%
- Mortality in % after 1 day (Phaedon cochleariae; 6 ppm): 0%

Compound: tetraniliprole
- Mortality in % after 1 day (Phaedon cochleariae; 0.12 ppm): 10%
- Mortality in % after 2 days (Phaedon cochleariae; 0.12 ppm): 40%
- Mortality in % after 1 day (Phaedon cochleariae; 0.24 ppm, beetle larvae on sprayed cabbage leaves): 30%
- Mortality in % after 2 days (Spodoptera frugiperda; 0.06 ppm, after 2 days, caterpillars on sprayed cotton leaves): 20%
- Mortality in % after 3 days (Spodoptera frugiperda; 0.06 ppm): 30%
- Mortality in % after 6 days (Spodoptera frugiperda; 0.06 ppm, after 6 days): 60%
- Mortality in % after 3 days (Spodoptera frugiperda; 0.12 ppm): 80%
